Experimental data published in patent US9693556B2, “Herbicidal pyridazinone derivatives” (SYNGENTA LIMITED, priority 2011, dated 2017).

What was measured:
Type in all cases: in vivo
[1] = system: Setaria faberi (SETFA); assay: Pre-emergence herbicidal glasshouse test on Setaria faberi; settings: pre-emergence; 1000 g/h; evaluated after 13 days
How it was run: (§1)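 Plants sprayed 1 day (pre-emergence) or 8 days (post-emergence) after sowing with compound at 1000 g/h in acetone/water 50:50 with 0.5% Tween 20; glasshouse 24/16° C, 14 h light, 65% humidity. Damage assessed after 13 days, scored 1–5 (5 = 80-100%, 1 = 0-19%).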

[2] = system: Setaria faberi (SETFA); assay: Post-emergence herbicidal glasshouse test on Setaria faberi; settings: post-emergence; 1000 g/h; evaluated after 13 days
How it was run: as §1

[3] = system: Amaranthus retoflexus (AMARE); assay: Post-emergence herbicidal glasshouse test on Amaranthus retoflexus; settings: post-emergence; 1000 g/h; evaluated after 13 days
How it was run: as §1

[4] = system: Solanum nigrum (SOLNI); assay: Pre-emergence herbicidal glasshouse test on Solanum nigrum; settings: pre-emergence; 1000 g/h; evaluated after 13 days
How it was run: as §1

[5] = system: Ipomoea hederacea (IPOHE); assay: Pre-emergence herbicidal glasshouse test on Ipomoea hederacea; settings: pre-emergence; 1000 g/h; evaluated after 13 days
How it was run: as §1

[6] = system: Alopecurus myosuroides (ALOMY); assay: Pre-emergence herbicidal glasshouse test on Alopecurus myosuroides; settings: pre-emergence; 1000 g/h; evaluated after 13 days
How it was run: as §1

[7] = system: Amaranthus retoflexus (AMARE); assay: Pre-emergence herbicidal glasshouse test on Amaranthus retoflexus; settings: pre-emergence; 1000 g/h; evaluated after 13 days
How it was run: as §1

[8] = system: Echinochloa crus-galli (ECHCG); assay: Post-emergence herbicidal glasshouse test on Echinochloa crus-galli; settings: post-emergence; 1000 g/h; evaluated after 13 days
How it was run: as §1

[9] = system: Alopecurus myosuroides (ALOMY); assay: Post-emergence herbicidal glasshouse test on Alopecurus myosuroides; settings: post-emergence; 1000 g/h; evaluated after 13 days
How it was run: as §1

[10] = system: Ipomoea hederacea (IPOHE); assay: Post-emergence herbicidal glasshouse test on Ipomoea hederacea; settings: post-emergence; 1000 g/h; evaluated after 13 days
How it was run: as §1

[11] = system: Solanum nigrum (SOLNI); assay: Post-emergence herbicidal glasshouse test on Solanum nigrum; settings: post-emergence; 1000 g/h; evaluated after 13 days
How it was run: as §1

[12] = system: Echinochloa crus-galli (ECHCG); assay: Pre-emergence herbicidal glasshouse test on Echinochloa crus-galli; settings: pre-emergence; 1000 g/h; evaluated after 13 days
How it was run: as §1

SMILES: Cn1ncc(-c2ccc(C(F)(F)F)cc2S(C)(=O)=O)c(OC(=O)c2ccccc2)c1=O [Compound 3.002]
- PRE Application SETFA herbicidal damage (five point scale) [1]: 5 (5=80-100% damage)
- POST Application SETFA herbicidal damage (five point scale) [2]: 5 (5=80-100% damage)
- POST Application AMARE herbicidal damage (five point scale) [3]: 5 (5=80-100% damage)
- PRE Application SOLNI herbicidal damage (five point scale) [4]: 5 (5=80-100% damage)
- PRE Application IPOHE herbicidal damage (five point scale) [5]: 5 (5=80-100% damage)
- PRE Application ALOMY herbicidal damage (five point scale) [6]: 5 (5=80-100% damage)
- PRE Application AMARE herbicidal damage (five point scale) [7]: 5 (5=80-100% damage)
- POST Application ECHCG herbicidal damage (five point scale) [8]: 5 (5=80-100% damage)
- POST Application ALOMY herbicidal damage (five point scale) [9]: 5 (5=80-100% damage)
- POST Application IPOHE herbicidal damage (five point scale) [10]: 5 (5=80-100% damage)
- POST Application SOLNI herbicidal damage (five point scale) [11]: 5 (5=80-100% damage)
- PRE Application ECHCG herbicidal damage (five point scale) [12]: 5 (5=80-100% damage)

SMILES: COC(=O)Oc1c(-c2ccc(C(F)(F)F)cc2S(C)(=O)=O)cnn(C)c1=O [Compound 3.003, Methyl [2-methyl-5-[2-methylsulfonyl-4-(trifluoromethyl)phenyl]-3-oxo-pyridazin-4-yl]carbonate]
- PRE Application SETFA herbicidal damage (five point scale) [1]: 5 (5=80-100% damage)
- POST Application SETFA herbicidal damage (five point scale) [2]: 5 (5=80-100% damage)
- POST Application AMARE herbicidal damage (five point scale) [3]: 5 (5=80-100% damage)
- PRE Application SOLNI herbicidal damage (five point scale) [4]: 5 (5=80-100% damage)
- PRE Application IPOHE herbicidal damage (five point scale) [5]: 5 (5=80-100% damage)
- PRE Application ALOMY herbicidal damage (five point scale) [6]: 5 (5=80-100% damage)
- PRE Application AMARE herbicidal damage (five point scale) [7]: 5 (5=80-100% damage)
- POST Application ECHCG herbicidal damage (five point scale) [8]: 5 (5=80-100% damage)
- POST Application ALOMY herbicidal damage (five point scale) [9]: 5 (5=80-100% damage)
- POST Application IPOHE herbicidal damage (five point scale) [10]: 5 (5=80-100% damage)
- POST Application SOLNI herbicidal damage (five point scale) [11]: 5 (5=80-100% damage)
- PRE Application ECHCG herbicidal damage (five point scale) [12]: 5 (5=80-100% damage)

SMILES: CCSC(=O)Oc1c(-c2ccc(C(F)(F)F)cc2S(C)(=O)=O)cnn(C)c1=O [Compound 3.004, [2-methyl-5-[2-methylsulfonyl-4-(trifluoromethyl)phenyl]-3-oxo-pyridazin-4-yl]ethylsulfanylformate]
- PRE Application SETFA herbicidal damage (five point scale) [1]: 5 (5=80-100% damage)
- POST Application SETFA herbicidal damage (five point scale) [2]: 5 (5=80-100% damage)
- POST Application AMARE herbicidal damage (five point scale) [3]: 5 (5=80-100% damage)
- PRE Application SOLNI herbicidal damage (five point scale) [4]: 5 (5=80-100% damage)
- PRE Application IPOHE herbicidal damage (five point scale) [5]: 5 (5=80-100% damage)
- PRE Application ALOMY herbicidal damage (five point scale) [6]: 5 (5=80-100% damage)
- PRE Application AMARE herbicidal damage (five point scale) [7]: 5 (5=80-100% damage)
- POST Application ECHCG herbicidal damage (five point scale) [8]: 5 (5=80-100% damage)
- POST Application ALOMY herbicidal damage (five point scale) [9]: 5 (5=80-100% damage)
- POST Application IPOHE herbicidal damage (five point scale) [10]: 5 (5=80-100% damage)
- POST Application SOLNI herbicidal damage (five point scale) [11]: 5 (5=80-100% damage)
- PRE Application ECHCG herbicidal damage (five point scale) [12]: 5 (5=80-100% damage)

SMILES: CCCS(=O)(=O)Oc1c(-c2ccc(C(F)(F)F)cc2S(C)(=O)=O)cnn(C)c1=O [Compound 3.005, [2-methyl-5-[2-methylsulfonyl-4-(trifluoromethyl)phenyl]-3-oxo-pyridazin-4-yl]propane-1-sulfonate]
- PRE Application SETFA herbicidal damage (five point scale) [1]: 5 (5=80-100% damage)
- POST Application SETFA herbicidal damage (five point scale) [2]: 5 (5=80-100% damage)
- POST Application AMARE herbicidal damage (five point scale) [3]: 5 (5=80-100% damage)
- PRE Application SOLNI herbicidal damage (five point scale) [4]: 5 (5=80-100% damage)
- PRE Application IPOHE herbicidal damage (five point scale) [5]: 4 (4=60-79% damage)
- PRE Application ALOMY herbicidal damage (five point scale) [6]: 5 (5=80-100% damage)
- PRE Application AMARE herbicidal damage (five point scale) [7]: 5 (5=80-100% damage)
- POST Application ECHCG herbicidal damage (five point scale) [8]: 5 (5=80-100% damage)
- POST Application ALOMY herbicidal damage (five point scale) [9]: 5 (5=80-100% damage)
- POST Application IPOHE herbicidal damage (five point scale) [10]: 5 (5=80-100% damage)
- POST Application SOLNI herbicidal damage (five point scale) [11]: 5 (5=80-100% damage)
- PRE Application ECHCG herbicidal damage (five point scale) [12]: 5 (5=80-100% damage)

SMILES: Cc1ccc(S(=O)(=O)Oc2c(-c3ccc(C(F)(F)F)cc3S(C)(=O)=O)cnn(C)c2=O)cc1 [Compound 3.006, [2-methyl-5-[2-methylsulfonyl-4-(trifluoromethyl)phenyl]-3-oxo-pyridazin-4-yl]4-methylbenzenesulfonate]
- PRE Application SETFA herbicidal damage (five point scale) [1]: 5 (5=80-100% damage)
- POST Application SETFA herbicidal damage (five point scale) [2]: 5 (5=80-100% damage)
- POST Application AMARE herbicidal damage (five point scale) [3]: 5 (5=80-100% damage)
- PRE Application SOLNI herbicidal damage (five point scale) [4]: 5 (5=80-100% damage)
- PRE Application IPOHE herbicidal damage (five point scale) [5]: 4 (4=60-79% damage)
- PRE Application ALOMY herbicidal damage (five point scale) [6]: 5 (5=80-100% damage)
- PRE Application AMARE herbicidal damage (five point scale) [7]: 5 (5=80-100% damage)
- POST Application ECHCG herbicidal damage (five point scale) [8]: 5 (5=80-100% damage)
- POST Application ALOMY herbicidal damage (five point scale) [9]: 5 (5=80-100% damage)
- POST Application IPOHE herbicidal damage (five point scale) [10]: 5 (5=80-100% damage)
- POST Application SOLNI herbicidal damage (five point scale) [11]: 5 (5=80-100% damage)
- PRE Application ECHCG herbicidal damage (five point scale) [12]: 5 (5=80-100% damage)

SMILES: CCn1ncc(-c2ccc(C(F)(F)F)nc2S(C)(=O)=O)c(O)c1=O [Compound 4.001]
- PRE Application SETFA herbicidal damage (five point scale) [1]: 5 (5=80-100% damage)
- POST Application SETFA herbicidal damage (five point scale) [2]: 5 (5=80-100% damage)
- POST Application AMARE herbicidal damage (five point scale) [3]: 5 (5=80-100% damage)
- PRE Application SOLNI herbicidal damage (five point scale) [4]: 5 (5=80-100% damage)
- PRE Application IPOHE herbicidal damage (five point scale) [5]: 5 (5=80-100% damage)
- PRE Application ALOMY herbicidal damage (five point scale) [6]: 5 (5=80-100% damage)
- PRE Application AMARE herbicidal damage (five point scale) [7]: 5 (5=80-100% damage)
- POST Application ECHCG herbicidal damage (five point scale) [8]: 5 (5=80-100% damage)
- POST Application ALOMY herbicidal damage (five point scale) [9]: 5 (5=80-100% damage)
- POST Application IPOHE herbicidal damage (five point scale) [10]: 5 (5=80-100% damage)
- POST Application SOLNI herbicidal damage (five point scale) [11]: 5 (5=80-100% damage)
- PRE Application ECHCG herbicidal damage (five point scale) [12]: 5 (5=80-100% damage)

SMILES: Cn1ncc(-c2ccc(C(F)(F)F)nc2S(C)(=O)=O)c(O)c1=O [Compound 4.003]
- PRE Application SETFA herbicidal damage (five point scale) [1]: 5 (5=80-100% damage)
- POST Application SETFA herbicidal damage (five point scale) [2]: 5 (5=80-100% damage)
- POST Application AMARE herbicidal damage (five point scale) [3]: 5 (5=80-100% damage)
- PRE Application SOLNI herbicidal damage (five point scale) [4]: 5 (5=80-100% damage)
- PRE Application IPOHE herbicidal damage (five point scale) [5]: 5 (5=80-100% damage)
- PRE Application ALOMY herbicidal damage (five point scale) [6]: 5 (5=80-100% damage)
- PRE Application AMARE herbicidal damage (five point scale) [7]: 5 (5=80-100% damage)
- POST Application ECHCG herbicidal damage (five point scale) [8]: 5 (5=80-100% damage)
- POST Application ALOMY herbicidal damage (five point scale) [9]: 5 (5=80-100% damage)
- POST Application IPOHE herbicidal damage (five point scale) [10]: 5 (5=80-100% damage)
- POST Application SOLNI herbicidal damage (five point scale) [11]: 5 (5=80-100% damage)
- PRE Application ECHCG herbicidal damage (five point scale) [12]: 5 (5=80-100% damage)

SMILES: COc1nc(C(F)(F)F)ccc1-c1cnn(C)c(=O)c1O [Compound 4.005]
- PRE Application SETFA herbicidal damage (five point scale) [1]: 1 (1=0-19% damage)
- POST Application SETFA herbicidal damage (five point scale) [2]: 1 (1=0-19% damage)
- POST Application AMARE herbicidal damage (five point scale) [3]: 5 (5=80-100% damage)
- PRE Application SOLNI herbicidal damage (five point scale) [4]: 1 (1=0-19% damage)
- PRE Application IPOHE herbicidal damage (five point scale) [5]: 1 (1=0-19% damage)
- PRE Application ALOMY herbicidal damage (five point scale) [6]: 1 (1=0-19% damage)
- PRE Application AMARE herbicidal damage (five point scale) [7]: 5 (5=80-100% damage)
- POST Application ECHCG herbicidal damage (five point scale) [8]: 1 (1=0-19% damage)
- POST Application ALOMY herbicidal damage (five point scale) [9]: 1 (1=0-19% damage)
- POST Application IPOHE herbicidal damage (five point scale) [10]: 2 (2=20-39% damage)
- POST Application SOLNI herbicidal damage (five point scale) [11]: 3 (3=40-59% damage)
- PRE Application ECHCG herbicidal damage (five point scale) [12]: 1 (1=0-19% damage)
